Entries after “also recorded” stand apart in the source; their conditions may differ. Read-outs that look alike come from different tables or passages of the source.
Biological target: T1, KinA (Bacillus subtilis, UniProt P16497)
T1 construct: made in house
T1 sequence (P16497 1-606): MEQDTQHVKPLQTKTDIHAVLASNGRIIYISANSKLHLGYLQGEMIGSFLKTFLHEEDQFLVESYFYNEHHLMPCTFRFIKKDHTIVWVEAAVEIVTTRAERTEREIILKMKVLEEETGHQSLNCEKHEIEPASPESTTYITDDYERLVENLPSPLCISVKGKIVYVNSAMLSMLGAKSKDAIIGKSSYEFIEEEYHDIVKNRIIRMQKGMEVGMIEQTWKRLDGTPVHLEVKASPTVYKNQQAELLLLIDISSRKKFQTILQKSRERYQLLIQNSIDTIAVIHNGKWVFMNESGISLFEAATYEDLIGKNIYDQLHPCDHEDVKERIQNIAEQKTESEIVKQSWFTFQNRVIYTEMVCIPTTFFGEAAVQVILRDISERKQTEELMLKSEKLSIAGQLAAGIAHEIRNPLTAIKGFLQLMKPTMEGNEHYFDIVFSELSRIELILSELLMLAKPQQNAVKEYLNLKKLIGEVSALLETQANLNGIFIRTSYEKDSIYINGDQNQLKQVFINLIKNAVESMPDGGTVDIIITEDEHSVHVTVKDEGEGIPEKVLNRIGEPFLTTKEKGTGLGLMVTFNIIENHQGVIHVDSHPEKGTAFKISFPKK
Experiment: biochemical
Format: biochemical
Conditions: for inhibition of KinA phosphorylation of SpoOF (in words): tested at 0.08% final concentration
Description: The reactions were performed in a 25 μl final volume containing 100 mM Tris pH 8.0, 100 mM KCl, 2 mM MgCl2, 0.5 mM dithiothreitol, 10% (v/v) glycerol, 0.1 % (w/v) gelatin, 4% (v/v) ethanol, 200 μM total ATP containing approximately 1.5 μCi [gamma-^32 P]ATP (New England Nuclear, 6000 Ci/mMol, 150 μCi/ml), 300 μM SpoOF protein and 0.04 μM KinA protein (Perego, et al., J. Bacteriol. 171: 6187-6196 (1989)) unless otherwise indicated. Fatty acids were added to varying final concentration from solutions made with 100% ethanol (the 4% ethanol concentration in the reaction mixture reflects these addition, or in the case of controls, the addition of ethanol alone). The reactions were initiated by addition of the ATP and incubated for thirty minutes at room temperature.
When higher KinA concentrations were used, the time of incubation was adjusted accordingly. The reactions were stopped by adding an equal volume of loading dye (0.25 M Tris pH 6.8, 20% (v/v) glycerol, 1% sodium dodecyl sulfate (w/v), 140 mM β-mercaptoethanol, 0.05% (w/v) bromophenol blue) and aliquots were loaded onto polyacrylamide gels (5% stacking, 15% separating, using the buffer system of Laemmi, Id., 1970).
The gels were run for approximately 16 hours at 10 mA constant current. The gels were covered with plastic wrap and subjected to autoradiography using Kodak XOmat RP1 film. Quantitation of activity was accomplished by cutting gels slices containing the appropriate phosphoprotein (usually SpoOF~P, see Section E below) and counting the Cerenkov radiation in a Beckman LF7500 scintillation counter (Beckman Instruments, Fullerton, Calif.). Equal-sized slices from blank areas of the gels were also counted and used to adjust for background. Percentage of activity was calculated using the value of the control reaction as 100%.
To quantify our initial assessment of inhibitory properties, the I0.5 values (at 4×10^-8 M KinA) were determined for each of the fatty acids. […] For example, the percent activity at an indicated oleic acid concentration is the ratio (×100) of the incorporation of ^32 P (from [γ^32 P]ATP) into the SpoOF protein relative to the incorporation in the control reaction containing no inhibitor. Typically, data are gathered from at least two different experiments. The I0.5 value is the concentration--e.g., the oleic acid concentration--corresponding to 50% activity as determined from the relevant graph.

[1] = Table 4, I0.5 at 4×10^-8 M KinA, 32P incorporation into SpoOF, read-out: Fatty Acid Inhibitors of KinA Activity (category by I0.5)
[2] = at 4×10^-8 M KinA, read-out: I0.5 value (concentration corresponding to 50% KinA activity)
[3] = Fatty Acid Inhibitors of KinA Activity (category by I0.5), Table 4, I0.5 at 4×10^-8 M KinA, 32P incorporation into SpoOF

| Molecule | inhibitory effect on KinA in vitro (in words) | IC50 [1] | other results |
| --- | --- | --- | --- |
| CC(C)CCCCCCCCCCCC(=O)O [13-methyltetradecanoic] | weak inhibitors | 100 to 500 µM | IC50 [2]: 400 µM; inhibitory effect on KinA in vitro (in words) (listed as 13-methyltetradecanoic acid): weak in vitro inhibitors; inhibitory effect on KinA in vitro (in words) (listed as iso 15:0): weak inhibitory properties |
| CCCCC/C=C\C/C=C\C/C=C\C/C=C\CCCC(=O)O [all cis-5,8,11,14-eicosatetraenoic] | – | – | IC50 [3]: < 70 µM |
| CC/C=C\C/C=C\C/C=C\CCCCCCCC(=O)O [all cis-9,12,15-octadecanoic] | – | < 70 µM | – |
| CCCCCC/C=C\CCCCCCCCCC(=O)O [cis-11-octadecanoic] | potent inhibitors | – | IC50 [3]: < 70 µM |
| CCCCCCCC/C=C\CCCCCCCCCCCC(=O)O [cis-13-docosenoic] | non-inhibitory | > 1000 µM | – |
| CCCCCCCC/C=C\CCCCCCCCCCCCCC(=O)O [cis-15-tetracosenoic] | non-inhibitory | – | IC50 [3]: > 1000 µM |
| CCCCCCCCCC(=O)O [decanoic] | not inhibitors | – | IC50 [3]: > 1000 µM |
| CCCCCCCCCCCC(=O)O [dodecanoic] | not inhibitors | > 1000 µM | – |
| O=P(O)(O)OCC(O)CO (centres unmarked) [glycerophosphate] | – | – | inhibition of KinA phosphorylation of SpoOF (in words): Only oleic acid and stearic acid were inhibitory |
| CCCCCC(=O)O [hexanoic] | not inhibitors | > 1000 µM | – |
| CCCCCCCCCCCCCCCCCC(=O)O [octadecanoic] | – | – | IC50 [3]: 100 to 500 µM; IC50 (I0.5 value (concentration corresponding to 50% KinA activity), at 4×10^-8 M KinA): 500 µM; inhibitory effect on KinA in vitro (in words) (listed as stearic): little or no inhibitory effect; inhibitory effect on KinA in vitro (in words) (listed as stearic acid): weak inhibitor; also recorded: very weak inhibitor; inhibition of KinA phosphorylation of SpoOF (in words): weak inhibition |
| CCCCCCCC(=O)O [octanoic] | not inhibitors | > 1000 µM | – |
| C/C=C/C(=O)O [trans-2-butenoic] | – | > 1000 µM | – |
| CCCCCCCC/C=C/CCCCCCCC(=O)O [trans-9-octadecenoic] | – | > 1000 µM | inhibitory effect on KinA in vitro (in words) (listed as elaidic): little or no inhibitory effect; also recorded: not inhibitory |
| CCCCCC/C=C/CCCCCCCCCC(=O)O [trans-11-octadecenoic] | – | – | IC50 [3]: > 1000 µM; inhibitory effect on KinA in vitro (in words) (listed as trans-vaccenic): little or no inhibitory effect; also recorded: not inhibitory |
| L-α-glycerophosphatidylcholine | – | – | inhibition of KinA phosphorylation of SpoOF (in words): Only oleic acid and stearic acid were inhibitory |
| L-α-phosphatidic acid | – | – | inhibition of KinA phosphorylation of SpoOF (in words): Only oleic acid and stearic acid were inhibitory |
| L-α-phosphatidylcholine | – | – | inhibition of KinA phosphorylation of SpoOF (in words): Only oleic acid and stearic acid were inhibitory |

More lines, main results first:

| inhibitory effect on KinA in vitro (in words) | IC50 [1] | Molecule | other results |
| --- | --- | --- | --- |
| weak inhibitors | 100 to 500 µM | CC(C)CCCCCCCCCCC(=O)O [12-methyltridecanoic] | inhibitory effect on KinA in vitro (in words) (listed as 12-methyltridecanoic acid): weak in vitro inhibitors; inhibitory effect on KinA in vitro (in words) (listed as iso 14:0): weak inhibitory properties |
| not inhibitors | > 1000 µM | CC(C)CCCCCCCCCCCCC(=O)O [14-methylpentadecanoic] | – |
| not inhibitors | > 1000 µM | CC(C)CCCCCCCCCCCCCC(=O)O [15-methylhexadecanoic] | – |
| not inhibitors | > 1000 µM | CC(C)CCCCCCCCCCCCCCC(=O)O [16-methylheptadecanoic] | – |
| – | < 70 µM | CCCCC/C=C\C/C=C\CCCCCCCC(=O)O [cis,cis-9,12-octadecenoic] | – |
| – | < 70 µM | CCCCCCCCCCC/C=C\CCCCC(=O)O [cis-6-octadecanoic] | – |
| potent inhibitors | < 70 µM | CCCCCC/C=C\CCCCCCCC(=O)O [cis-9-hexadecanoic] | – |
| only a weak inhibitor | 100 to 500 µM | CCCC/C=C\CCCCCCCC(=O)O [cis-9-tetradecenoic] | IC50 [2]: 200 µM |
| – | < 70 µM | CCCCCCCC/C=C\CCCCCCCCCC(=O)O [cis-11-eicosenoic] | – |
| – | > 1000 µM | CCCCCCCCCCCCCCCCCCCC(=O)O [eicosanoic] | – |
| – | > 1000 µM | CCCCCCCCCCCCCCCCC(=O)O [heptadecanoic] | – |
| little or no inhibitory effect | > 1000 µM | CCCCCCCCCCCCCCCC(=O)O [hexadecanoic] | inhibition of KinA phosphorylation of SpoOF (in words): Only oleic acid and stearic acid were inhibitory |
| – | > 1000 µM | CCCCCCCCCCCCCC(=O)O [tetradecanoic] | – |

Source: patent US6043045A, “Screening methods for the identification of novel antibiotics” (The Scripps Research Institute, priority 1998, dated 2000)
